Laboratory results published in patent US10350210B2, “EGFR and ALK dual inhibitor” (PRECEDO PHARMACEUTICALS CO., LTD, priority 2015, dated 2019).

Tests used:
Format in all cases: cell-based
[1] = system: PC-9; test: Growth of cancer cells (Cell Titer-Glo viability), PC-9; details: Homo sapiens; PC-9 (EGFR delE746_A750 mutant), 72 hrs
Procedure, shortened: (§1)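 Cells are counted as viable by CellTiter-Glo chemiluminescence. Murine BaF3 lines depend on a stably transfected TEL-fused kinase after IL-3 withdrawal, and the NSCLC lines express mutant EGFR.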

[2] = system: BaF3-TEL-INSR; test: Cell growth (Cell Titer-Glo viability), BaF3-TEL-INSR; details: Mus musculus; BaF3-TEL-INSR (stably expressing INSR protein), 72 hrs
Excerpt: (§2) By testing the effect of the novel kinase inhibitors on the proliferation of cancer cells, the selectivity of the compounds of the present disclosure in inhibiting the proliferation of cancer cells was further assessed. In this example, human non-small cell lung cancer cell NCI-H1975 (expressing EGFR L858R/T790M double mutant gene), human skin squamous carcinoma cell A431 (expressing wild-type EGFR gene), non-small cell lung cancer NCI-H3255 (expressing EGFR L858R mutant gene), non-small cell lung cancer cell NCI-H3122 (expressing ALK gene), human non-small cell lung cancer cell A549 (expressing wild-type EGFR gene), human non-small cell lung cancer cell NCI-H2122 (expressing wild-type EGFR gene), human non-small cell lung cancer cell NCI-H460 (expressing wild-type EGFR gene), human non-small cell lung cancer cell PC-9 (expressing EGFR delE746_A750 mutant gene), Chinese hamster ovary cell CHO (Cricetulus griseus, hamster, Chinese, ovary), Chinese hamster lung cell CHL, human non-small cell lung cancer cell HCC827 (expressing mutant EGFR del19 gene), human lung adenocarcinoma cell HCC4006 (expressing mutant EGFR del19 gene), human non-small cell lung cancer cell NCI-H2228 (expressing wild-type ALK gene), and mouse primary B cell BaF3 were used, and the above cells were all purchased from ATCC (US). In addition, mouse BaF3-TEL-ALK (stably expressing ALK kinase), mouse BaF3-ALK-F1174L (stably expressing mutant ALK F1174L kinase), mouse BaF3-NPM-ALK (stably expressing ALK kinase), mouse BaF3-TEL-EGFR (stably expressing EGFR kinase), mouse BaF3-TEL-EGFR-T790M (stably expressing EGFR T790M mutant kinase), mouse BaF3-FL-EGFR-Del19 (stably expressing EGFR delE746_A750 mutant kinase), mouse BaF3-TEL-EGFR-L858R (stably expressing EGFR L858R mutant kinase), mouse BaF3-FL-EGFR-T790M-L858R (stably expressing EGFR T790M/L858R mutant kinase), mouse BaF3-TEL-INSR (stably expressing INSR protein), mouse BaF3-TEL-IGF1R (stably expressing IGF1R Protein), mouse BaF3-EML4-ALK (stably expressing EML4-ALK Protein), mouse BaF3-TEL-JAK3 (stably expressing JAK3 kinase protein), mouse BaF3-TEL-CSF1R (stably expressing CSF1R protein), and mouse BaF3-TEL-ALK-F1196M (stably expressing ALK F1196M mutant kinase) were also used in this example. The above cell lines were all established by our laboratory via the following process: kinase proteins or protein domain sequences of human ALK, ALK F1174L, EGFR, EGFR T790M, EGFR delE746_A750, EGFR L858, EGFR T790M/L858R, INSR, IGF1R, EML4-ALK, JAK3, CSF1R, ALK F1196M were amplified respectively by PCR, and were respectively inserted into MSCV-Puro vector (Clontech) with N-terminal TEL fragments and/or NPM fragments and/or TPR fragments; the resultants were stably transfected into mouse BaF3 cells by the means of retrovirus, and the IL-3 growth factors were removed, and eventually the ALK, ALK F1174L, EGFR, EGFR T790M, EGFR delE746_A750, EGFR L858, EGFR T790M/L858R, INSR, IGF1R, EML4-ALK, JAK3, CSF1R, ALK F1196M-transferred protein dependent cell lines were obtained.
(§3) The number of viable cells was determined quantitatively by a microplate reader using Cell Titer-Glo® (Promega, US) chemiluminescence cell viability assay kit.

[3] = system: BaF3-TEL-CSF1R; test: Cell growth (Cell Titer-Glo viability), BaF3-TEL-CSF1R; details: Mus musculus; BaF3-TEL-CSF1R (stably expressing CSF1R protein), 72 hrs
Excerpt: as §2, with “The above cell lines were all established by our laboratory via the following process: kinase proteins or protein domain sequences of human ALK, ALK F1174L, EGFR, EGFR T790M, EGFR delE746_A750, EGFR L858, EGFR T790M/L858R, INSR, IGF1R, EML4-ALK, JAK3, CSF1R, ALK F1196M were amplified respectively by PCR, and were respectively inserted into MSCV-Puro vector (Clontech) with N-terminal TEL fragments and/or NPM fragments and/or TPR fragments; the resultants were stably transfected into mouse BaF3 cells by the means of retrovirus, and the IL-3 growth factors were removed, and eventually the ALK, ALK F1174L, EGFR, EGFR T790M, EGFR delE746_A750, EGFR L858, EGFR T790M/L858R, INSR, IGF1R, EML4-ALK, JAK3, CSF1R, ALK F1196M-transferred protein dependent cell lines were obtained.” left out
as §3

[4] = system: BaF3-EML4-ALK; test: Cell growth (Cell Titer-Glo viability), BaF3-EML4-ALK; details: Mus musculus, Ba/F3 EML4-ALK; BaF3-EML4-ALK (stably expressing EML4-ALK protein), 72 hrs
Excerpt: as §2, §3

[5] = system: HCC827; test: Growth of cancer cells (Cell Titer-Glo viability), HCC827; details: Homo sapiens; HCC827 (mutant EGFR del19), 72 hrs
Procedure, shortened: (§4)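 Proliferation assay: IL-3-independent BaF3 lines stably expressing TEL-fused human kinase (retroviral MSCV-Puro), plus EGFR-mutant NSCLC lines (HCC827 del19, NCI-H3255 L858R). Read-out: CellTiter-Glo luminescence of viable cells.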

[6] = system: BaF3-TEL-JAK3; test: Cell growth (Cell Titer-Glo viability), BaF3-TEL-JAK3; details: Mus musculus; BaF3-TEL-JAK3 (stably expressing JAK3 kinase protein), 72 hrs
Excerpt: as §2, §3

[7] = system: NCI-H1975; test: Growth of cancer cells (Cell Titer-Glo viability), NCI-H1975; details: Homo sapiens; NCI-H1975 (EGFR L858R/T790M double mutant), 72 hrs
Procedure, shortened: as §1

[8] = system: BaF3; test: Cell growth (Cell Titer-Glo viability), BaF3; details: BaF3 mouse primary B cell, 72 hrs
[9] = system: NCI-H3122; test: Growth of cancer cells (Cell Titer-Glo viability), NCI-H3122; details: Homo sapiens; NCI-H3122 (expressing ALK gene), 72 hrs; read-out: GI50
[10] = system: BaF3-TEL-IGF1R; test: Cell growth (Cell Titer-Glo viability), BaF3-TEL-IGF1R; details: Mus musculus; BaF3-TEL-IGF1R (stably expressing IGF1R protein), 72 hrs
Excerpt: as §2, with “The above cell lines were all established by our laboratory via the following process: kinase proteins or protein domain sequences of human ALK, ALK F1174L, EGFR, EGFR T790M, EGFR delE746_A750, EGFR L858, EGFR T790M/L858R, INSR, IGF1R, EML4-ALK, JAK3, CSF1R, ALK F1196M were amplified respectively by PCR, and were respectively inserted into MSCV-Puro vector (Clontech) with N-terminal TEL fragments and/or NPM fragments and/or TPR fragments; the resultants were stably transfected into mouse BaF3 cells by the means of retrovirus, and the IL-3 growth factors were removed, and eventually the ALK, ALK F1174L, EGFR, EGFR T790M, EGFR delE746_A750, EGFR L858, EGFR T790M/L858R, INSR, IGF1R, EML4-ALK, JAK3, CSF1R, ALK F1196M-transferred protein dependent cell lines were obtained.” left out
as §3

[11] = system: BaF3-TEL-EGFR-T790M; test: Cell growth (Cell Titer-Glo viability), BaF3-TEL-EGFR-T790M; details: Mus musculus; BaF3-TEL-EGFR-T790M (EGFR T790M mutant kinase), 72 hrs
Procedure, shortened: as §4

[12] = system: BaF3-TEL-ALK; test: Cell growth (Cell Titer-Glo viability), BaF3-TEL-ALK; details: Mus musculus; BaF3-TEL-ALK (stably expressing ALK kinase), 72 hrs
Procedure, shortened: as §4

[13] = system: A549; test: Growth of cancer cells (Cell Titer-Glo viability), A549; details: Homo sapiens; A549 (wild-type EGFR), 72 hrs

SMILES | GI50 [1] [nM] | GI50 [2] [nM] | GI50 [3] [nM] | GI50 [4] [nM] | GI50 [5] [nM] | GI50 [6] [nM] | GI50 [7] [nM] | GI50 [8] [nM] | GI50 [9] [nM] | GI50 [10] [nM] | GI50 [11] [nM] | GI50 [12] [nM] | GI50 [13] [nM]
C=CC(=O)Nc1cc(Nc2ncc(Cl)c(Nc3ccccc3C(=O)NC)n2)c(OC)cc1N(C)CCN(C)C [Compound 71, 2-(2-(5-acrylamido-4-((2-(dimethylamino)ethyl)(methyl)amino)-2-methoxyphenylamino)-5-chloropyrimidin-4-ylamino)-N-methylbenzamide] | 2 | 8.4 | 150 | 12 | 16 | 9 | 12 | 940 | 4.3 | – | – | – | –
C=CC(=O)Nc1cc(Nc2ncc(Cl)c(Nc3ccccc3C(=O)NC)n2)c(OC)cc1N1CCN(C)CC1 [Compound 64, 2-(2-(5-acrylamido-2-methoxy-4-(4-methylpiperazin-1-yl)phenylamino)-5-chloropyrimidin-4-ylamino)-N-methylbenzamide] | 7.2 | 2.3 | – | 13 | 13 | 59 | 50 | 2900 | 4.4 | 14 | 28 | 10 | 370
C=CC(=O)Nc1cc(Nc2ncc(Cl)c(Nc3ccccc3C(=O)NC)n2)c(OC)cc1N1CCN(C(C)=O)CC1 [Compound 68, 2-(2-(4-(4-ethanoylpiperazin-1-yl)-5-acrylamido-2-methoxyphenylamino)-5-chloropyrimidin-4-ylamino)-N-methylbenzamide] | 97 | 14 | – | 160 | 83 | 270 | 250 | 5700 | 12 | 41 | 250 | 120 | 1700
C=CC(=O)Nc1cc(Nc2ncc(Cl)c(Nc3ccccc3C(=O)NC)n2)c(OC)cc1N1CCN(CC)CC1 [Compound 65] | 4.2 | < 0.3 | – | 8.6 | 13 | 45 | 5.1 | 2100 | 3.5 | 2 | 30 | 3.1 | 220
C=CC(=O)Nc1cc(Nc2ncc(Cl)c(Nc3ccccc3C(=O)NC)n2)c(OC)cc1N1CCN(C(C)C)CC1 [Compound 69, 2-(2-(5-acrylamido-4-(4-isopropylpiperazin-1-yl)-2-methoxyphenylamino)-5-chloropyrimidin-4-ylamino)-N-methylbenzamide] | 15 | 49 | 100 | 1.4 | 62 | 37 | 79 | 1100 | 4.5 | – | – | – | –
C=CC(=O)Nc1cc(Nc2ncc(Cl)c(Nc3ccccc3C(=O)NC)n2)c(OC)cc1N1CCC(N2CCOCC2)CC1 [Compound 67, 2-(2-(5-acrylamido-2-methoxy-4-(4-morpholinylpiperidin-1-yl)phenylamino)-5-chloropyrimidin-4-ylamino)-N-methylbenzamide] | 9.6 | 1.8 | – | 35 | 14 | 110 | 14 | 5400 | 4.4 | 7.7 | 28 | 13 | 450
C=CC(=O)Nc1cc(Nc2ncc(Cl)c(Nc3ccccc3C(=O)NC)n2)c(OC)cc1N1CCN(C2CCN(C)CC2)CC1 [Compound 72, 2-(2-(5-acrylamido-2-methoxy-4-(4-(1-methylpiperidin-4-yl)piperazin-1-yl)phenylamino)-5-chloropyrimidin-4-ylamino)-N-methylbenzamide] | 120 | 49 | 370 | 71 | 210 | 290 | 120 | 1700 | 18 | – | – | – | –
C=CC(=O)Nc1cc(Nc2ncc(Cl)c(Nc3ccccc3C(=O)NC)n2)c(OC)cc1N1CCN(C2CCCCC2)CC1 [Compound 70, 2-(2-(5-acrylamido-4-(4-cyclohexylpiperazin-1-yl)-2-methoxyphenylamino)-5-chloropyrimidin-4-ylamino)-N-methylbenzamide] | 35 | < 0.3 | 170 | 4.5 | 140 | 58 | 65 | 1000 | 7.6 | – | – | – | –
